Converted amounts (≈) assume the structure as drawn.
What was measured:
[1] = Cytotoxicity against human MCF7/ADR cells assessed as ratio of drug concentration to drug ED100 at 0.8 ug/ml after 6 days by BCA assay; assay type: functional, NCI/ADR-RES
MCF/ADR [2] = test: Reversal of P-gp-mediated multidrug resistance in human MCF/ADR cells assessed as ratio of doxorubicin ED50 without drug to doxorubicin ED50 with drug at 0.3 ug/ml after 6 days by BCA assay; assay type: cell-based
[3] = Cytotoxicity against human MCF7/ADR cells assessed as ratio of drug concentration to drug ED100 at 1.0 ug/ml after 6 days by BCA assay; assay type: functional, NCI/ADR-RES
MCF/ADR [4] = test: Reversal of P-gp-mediated multidrug resistance in human MCF/ADR cells assessed as ratio of doxorubicin ED50 without drug to doxorubicin ED50 with drug at 0.8 ug/ml after 6 days by BCA assay; assay type: cell-based
MCF/ADR [5] = test: Reversal of P-gp-mediated multidrug resistance in human MCF/ADR cells assessed as ratio of doxorubicin ED50 without drug to doxorubicin ED50 with drug at 0.6 ug/ml after 6 days by BCA assay; assay type: cell-based
MCF/ADR [6] = test: Reversal of P-gp-mediated multidrug resistance in human MCF/ADR cells assessed as ratio of doxorubicin ED50 without drug to doxorubicin ED50 with drug at 1.0 ug/ml after 6 days by BCA assay; assay type: cell-based
[7] = Cytotoxicity against human MCF7/ADR cells; assay type: functional; conditions: NCI/ADR-RES, read-out: ED50 (the source's name)
[8] = Cytotoxicity against human MCF7/ADR cells assessed as ratio of drug concentration to drug ED100 at 0.3 ug/ml after 6 days by BCA assay; assay type: functional, NCI/ADR-RES
[9] = Cytotoxicity against human MCF7/ADR cells assessed as ratio of drug concentration to drug ED100 at 0.6 ug/ml after 6 days by BCA assay; assay type: functional, NCI/ADR-RES
[10] = Cytotoxicity against human MCF7/ADR cells assessed as ratio of drug concentration to drug ED100 at 8 ug/ml after 6 days by BCA assay; assay type: functional, NCI/ADR-RES
[11] = Cytotoxicity against human MCF7/ADR cells assessed as ratio of drug concentration to drug ED100 at 6 ug/ml after 6 days by BCA assay; assay type: functional, NCI/ADR-RES
[12] = Cytotoxicity against human MCF7/ADR cells assessed as ratio of drug concentration to drug ED100 at 10 ug/ml after 6 days by BCA assay; assay type: functional, NCI/ADR-RES
[13] = Cytotoxicity against human MCF7/ADR cells assessed as ratio of drug concentration to drug ED100 at 1.5 ug/ml after 6 days by BCA assay; assay type: functional, NCI/ADR-RES
[14] = Cytotoxicity against human MCF7/ADR cells assessed as ratio of drug concentration to drug ED100 at 3 ug/ml after 6 days by BCA assay; assay type: functional, NCI/ADR-RES
[15] = Cytotoxicity against human MCF7/ADR cells assessed as ratio of drug concentration to drug ED100 at 0.15 ug/ml after 6 days by BCA assay; assay type: functional, NCI/ADR-RES
MCF/ADR [16] = test: Reversal of P-gp-mediated multidrug resistance in human MCF/ADR cells assessed as ratio of doxorubicin ED50 without drug to doxorubicin ED50 with drug at 1.15 ug/ml after 6 days by BCA assay; assay type: cell-based

Structure (SMILES)	Activity [1]	Activity (MCF/ADR [2])	Activity [3]	Activity (MCF/ADR [4])	Activity (MCF/ADR [5])	Activity (MCF/ADR [6])	EC50 [7] [µg/mL]	Activity [8]	Activity [9]	Activity [10]	Activity [11]	Activity [12]	Activity [13]	Activity [14]	Activity [15]	Ratio ED50 (MCF/ADR [2])	Ratio ED50 (MCF/ADR [4])	Ratio ED50 (MCF/ADR [16])	Ratio ED50 (MCF/ADR [5])	Ratio ED50 (MCF/ADR [6])
COc1ccc2cc1Oc1ccc(cc1)C[C@@H]1NCCc3cc(OC)c4c(c31)Oc1cc3c(cc1O4)CCN(C)[C@H]3C2 [TRILOBINE]	0.13	1	0.17	2	1.5	2	1 (≈ 1.78 µM)	0.05	0.1											
COc1ccc(CCN(C)CCCC(C#N)(c2ccc(OC)c(OC)c2)C(C)C)cc1OC (stereo not given) [VERAPAMIL]										0.15	0.12	0.19	0.03	0.06						
COc1ccc2cc1Oc1ccc(cc1)C[C@H]1c3c(cc(OC)c4c3Oc3cc5c(cc3O4)CCN(C)[C@H]5C2)CCN1C [ISOTRILOBINE]	0.16		0.2				2 (≈ 3.47 µM)	0.06	0.12						0.03	10	57	5	32	70

— ChEMBL document CHEMBL1159299, “Multidrug-resistance modulators from Stephania japonica” (1997)
